# Data reported in patent publication US9763445B2, “Safened herbicidal compositions comprising a pyridine carboxylic acid herbicide” (Dow AgroSciences, LLC, priority 2014, dated 2017).
# Assays:
# wild chamomile (MATCH) = assay: Postemergence greenhouse trial, % visual injury on wild chamomile; assay type: in vivo, Matricaria chamomilla; details: CQC-m 0
# Method: (§1) Seeds of the desired test plant species were planted in Sun Gro MetroMix® 306 planting mixture, which typically has a pH of 6.0 to 6.8 and an organic matter content of about 30 percent, in plastic pots with a surface area of 103.2 square centimeters (cm^2). When required to ensure good germination and healthy plants, a fungicide treatment and/or other chemical or physical treatment was applied. The plants were grown for 7-36 days (d) in a greenhouse with an approximate 14-hour (h) photoperiod which was maintained at about 23° C. during the day and 22° C. during the night. Nutrients and water were added on a regular basis and supplemental lighting was provided with overhead metal halide 1000-Watt lamps as necessary. The plants were employed for testing when they reached the second or third true leaf stage.
# (§2) Weighed amounts of technical material were dissolved in a volume of 97:3 volume per volume (v/v) acetone/dimethyl sulfoxide (DMSO) to stock solutions. […] The concentrated stock solutions were diluted with an aqueous mixture of 1.5% v/v of Agri-dex crop oil concentrate to provide the appropriate application rates. Compound requirements are based upon a 12 milliliter (mL) application volume at a rate of 187 liters per hectare (L/ha). Stocks solutions of the safeners were prepared following the same procedure. Spray solutions of the safeners and experimental compound mixtures were prepared by adding the stock solutions to the appropriate amount of dilution solution to form a 12 mL spray solution in two-way combinations. Formulated compounds were applied to the plant material with an overhead Mandel track sprayer equipped with 8002E nozzles calibrated to deliver 187 L/ha over an application area of 0.503 square meters (m^2) at a spray height of 18 inches (43 centimeters (cm)) above average plant canopy. Control plants were sprayed in the same manner with the solvent blank. All herbicide application (component a) rates are in g ae/ha and all safener (component b) rates are in g ai/ha.
# The treated plants and control plants were placed in a greenhouse as described above and watered by sub-irrigation to prevent wash-off of the test compounds. After 20-22 d, the condition of the test plants as compared with that of the control plants was determined visually and scored on a scale of 0 to 100 percent where 0 corresponds to no injury and 100 corresponds to complete kill. Colby's equation was used to determine the herbicidal effects expected from the mixtures. […]
# lambsquarters (CHEAL) = assay: Postemergence greenhouse trial, % visual injury on lambsquarters; assay type: in vivo, Chenopodium album; details: Chenopodium album, post-emergence, CHEAL, CQC-m 0, read-out: % visual injury, Ob
# Outline: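 Visual injury, 0 (none) to 100 (complete kill), rated 20-22 d after overhead track-sprayer application at 187 L/ha; Colby's equation gave expected mixture responses. Herbicide (g ae/ha) and cloquintocet-mexyl safener (g ai/ha) diluted in aqueous 1.5% v/v Agri-dex, applied to weeds at 2–3 true leaves.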
# Russian thistle (SASKR) = assay: Postemergence greenhouse trial, % visual injury on Russian thistle; assay type: in vivo, Salsola kali; details: SASKR, CQC-m 0
# spring wheat (TRZAS) = assay: Postemergence greenhouse trial, % visual injury on spring wheat; assay type: in vivo, Triticum aestivum; details: TRZAS, CQC-m 0
# Outline: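 Injury was scored visually (0 = none, 100 = complete kill) 20–22 d after track-sprayer application at 187 L/ha, compared with solvent-sprayed controls. Test plants at the 2–3 true leaf stage; herbicide (g ae/ha) plus cloquintocet-mexyl safener (g ai/ha) in crop-oil-containing spray; expected mixture response by Colby.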
# common poppy (PAPRH) = assay: Postemergence greenhouse trial, % visual injury on common poppy; assay type: in vivo, Papaver rhoeas; details: Papaver rhoeas, post-emergence, PAPRH, CQC-m 0, read-out: % visual injury, Ob
# Outline: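 Herbicide rates g ae/ha, safener (cloquintocet-mexyl) rates g ai/ha; spray carrier 1.5% v/v crop oil concentrate, 187 L/ha, 2nd–3rd leaf stage. Rating: visual % injury at 20-22 d.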
# shepherd's purse (CAPBP) = assay: Postemergence greenhouse trial, % visual injury on shepherd's purse; assay type: in vivo, Capsella bursa-pastoris; details: CAPBP, CQC-m 0
# Method: as §1, §2
# The treated plants and control plants were placed in a greenhouse as described above and watered by sub-irrigation to prevent wash-off of the test compounds. After 20-22 d, the condition of the test plants as compared with that of the control plants was determined visually and scored on a scale of 0 to 100 percent where 0 corresponds to no injury and 100 corresponds to complete kill. The condition of the test plants was compared with that of the control plants as determined visually and scored on a scale of 0 to 100 percent, where 0 corresponds to no injury and 100 corresponds to complete kill. Colby's equation was used to determine the herbicidal effects expected from the mixtures.
# The safener cloquintocet-mexyl was combined with compound 1, compound 2, compound 3, compound 7, compound 8, compound 9, compound 10, compound 11, compound 12, compound 13, compound 14, compound 15, compound 16, compound 17, compound 18, compound 19, and compound 20, and applied to spring wheat (TRZAS), winter wheat (TRZAW), and spring barley (HORVS) and the phytotoxicity of the herbicidal compositions was measured. […]
smiles,measurement,setting,value
COC(=O)c1nc(-c2ccc3cc[nH]c3c2F)c(F)c(N)c1OC [compound 12],"% visual injury, Ob",wild chamomile (MATCH); compound 4.380 g/ha,5%
same,"% visual injury, Ob",wild chamomile (MATCH); compound 8.75 g/ha,3%
same,"% visual injury, Ob",wild chamomile (MATCH); compound 17.5 g/ha,7%
same,"% visual injury, Ob",wild chamomile (MATCH); compound 35 g/ha,10%
same,"% visual injury, Ob",wild chamomile (MATCH); compound 70 g/ha,13%
same,pest or weed control at 4.38 g/ha,lambsquarters (CHEAL); compound 4.380 g/ha,40%
same,pest or weed control at 8.75 g/ha,lambsquarters (CHEAL); compound 8.75 g/ha,50%
same,pest or weed control at 17.5 g/ha,lambsquarters (CHEAL); compound 17.5 g/ha,72%
same,pest or weed control at 35 g/ha,lambsquarters (CHEAL); compound 35 g/ha,88%
same,pest or weed control at 70 g/ha,lambsquarters (CHEAL); compound 70 g/ha,91%
same,"% visual injury, Ob",Russian thistle (SASKR); compound 4.380 g/ha,10%
same,"% visual injury, Ob",Russian thistle (SASKR); compound 8.75 g/ha,33%
same,"% visual injury, Ob",Russian thistle (SASKR); compound 17.5 g/ha,52%
same,"% visual injury, Ob",Russian thistle (SASKR); compound 35 g/ha,72%
same,"% visual injury, Ob",Russian thistle (SASKR); compound 70 g/ha,88%
same,"% visual injury, Ob",spring wheat (TRZAS); compound 4.380 g/ha,15%
same,"% visual injury, Ob",spring wheat (TRZAS); compound 8.75 g/ha,27%
same,"% visual injury, Ob",spring wheat (TRZAS); compound 17.5 g/ha,42%
same,"% visual injury, Ob",spring wheat (TRZAS); compound 35 g/ha,53%
same,"% visual injury, Ob",spring wheat (TRZAS); compound 70 g/ha,70%
same,pest or weed control at 4.38 g/ha,common poppy (PAPRH); compound 4.380 g/ha,90%
same,pest or weed control at 8.75 g/ha,common poppy (PAPRH); compound 8.75 g/ha,93%
same,pest or weed control at 17.5 g/ha,common poppy (PAPRH); compound 17.5 g/ha,95%
same,pest or weed control at 35 g/ha,common poppy (PAPRH); compound 35 g/ha,100%
same,pest or weed control at 70 g/ha,common poppy (PAPRH); compound 70 g/ha,100%
same,"% visual injury, Ob",shepherd's purse (CAPBP); compound 4.380 g/ha,70%
same,"% visual injury, Ob",shepherd's purse (CAPBP); compound 17.5 g/ha,100%
same,"% visual injury, Ob",shepherd's purse (CAPBP); compound 70 g/ha,100%
